Results as given in ChEMBL document CHEMBL4152270, “Free radical rearrangement synthesis and microbiological evaluation of novel 2-sulfoether-4-quinolone scaffolds as potential antibacterial agents” (Eur J Med Chem, 2018).
In brackets after ≈: the same amount, converted by molar mass. Activity calls are given as the source filed them. The rule behind the calls is not given here.

Tests used:
Candida albicans = experiment: Antimicrobial activity against Candida albicans after 18 to 20 hrs by micro broth dilution method; type: functional
Bacillus cereus [1] = experiment: Antimicrobial activity against Bacillus cereus after 18 to 20 hrs by micro broth dilution method; type: functional
Escherichia coli = experiment: Antimicrobial activity against Escherichia coli after 18 to 20 hrs by micro broth dilution method; type: functional
Pseudomonas aeruginosa = experiment: Antimicrobial activity against Pseudomonas aeruginosa after 18 to 20 hrs by micro broth dilution method; type: functional
Staphylococcus aureus [2] = experiment: Antimicrobial activity against Staphylococcus aureus after 18 to 20 hrs by micro broth dilution method; type: functional
Staphylococcus aureus [3] = experiment: Antimicrobial activity against methicillin-resistant Staphylococcus aureus after 18 to 20 hrs by micro broth dilution method; type: functional
Staphylococcus aureus [4] = experiment: Bactericidal activity against Staphylococcus aureus after 24 hrs by micro broth dilution method; type: functional
Bacillus cereus [5] = experiment: Bactericidal activity against Bacillus cereus after 24 hrs by micro broth dilution method; type: functional
DNA gyrase subunit A = DNA gyrase subunit A (Staphylococcus aureus, UniProt P20831); experiment: Inhibition of Staphylococcus aureus DNA gyrase subunit A supercoiling activity using relaxed pBR322 DNA as substrate after 60 mins by agarose gel electrophoresis
Staphylococcus aureus [6] = experiment: Induction of cell wall damage in Staphylococcus aureus ATCC 6538 assessed as emergence of solute loss at 0.8 uM after 24 hrs by transmission electron microscopy; type: functional, organism-based
Staphylococcus aureus [7] = experiment: Induction of cell death in Staphylococcus aureus ATCC 6538 at 0.8 uM after 24 hrs by transmission electron microscopy; type: functional, organism-based
Staphylococcus aureus [8] = experiment: Induction of cell wall damage in Staphylococcus aureus ATCC 6538 assessed as blemishes on cell wall at 0.8 uM after 24 hrs by transmission electron microscopy; type: functional, organism-based
Staphylococcus aureus [9] = experiment: Induction of morphological changes in Staphylococcus aureus ATCC 6538 assessed as shrinkage of cell morphology at 0.8 uM after 24 hrs by transmission electron microscopy; type: functional, organism-based
Staphylococcus aureus [10] = experiment: Induction of morphological changes in Staphylococcus aureus ATCC 6538 assessed as cell wall swelling at 0.8 uM after 24 hrs by transmission electron microscopy; type: functional, organism-based
Staphylococcus aureus [11] = experiment: Growth inhibition of Staphylococcus aureus at 1 to 4 times MIC after 24 hrs; type: functional, organism-based
Staphylococcus aureus [12] = experiment: Growth inhibition of Staphylococcus aureus at 0.25 to 0.5 times MIC after 24 hrs; type: functional, organism-based

Sequence of DNA gyrase subunit A (P20831 whole entry): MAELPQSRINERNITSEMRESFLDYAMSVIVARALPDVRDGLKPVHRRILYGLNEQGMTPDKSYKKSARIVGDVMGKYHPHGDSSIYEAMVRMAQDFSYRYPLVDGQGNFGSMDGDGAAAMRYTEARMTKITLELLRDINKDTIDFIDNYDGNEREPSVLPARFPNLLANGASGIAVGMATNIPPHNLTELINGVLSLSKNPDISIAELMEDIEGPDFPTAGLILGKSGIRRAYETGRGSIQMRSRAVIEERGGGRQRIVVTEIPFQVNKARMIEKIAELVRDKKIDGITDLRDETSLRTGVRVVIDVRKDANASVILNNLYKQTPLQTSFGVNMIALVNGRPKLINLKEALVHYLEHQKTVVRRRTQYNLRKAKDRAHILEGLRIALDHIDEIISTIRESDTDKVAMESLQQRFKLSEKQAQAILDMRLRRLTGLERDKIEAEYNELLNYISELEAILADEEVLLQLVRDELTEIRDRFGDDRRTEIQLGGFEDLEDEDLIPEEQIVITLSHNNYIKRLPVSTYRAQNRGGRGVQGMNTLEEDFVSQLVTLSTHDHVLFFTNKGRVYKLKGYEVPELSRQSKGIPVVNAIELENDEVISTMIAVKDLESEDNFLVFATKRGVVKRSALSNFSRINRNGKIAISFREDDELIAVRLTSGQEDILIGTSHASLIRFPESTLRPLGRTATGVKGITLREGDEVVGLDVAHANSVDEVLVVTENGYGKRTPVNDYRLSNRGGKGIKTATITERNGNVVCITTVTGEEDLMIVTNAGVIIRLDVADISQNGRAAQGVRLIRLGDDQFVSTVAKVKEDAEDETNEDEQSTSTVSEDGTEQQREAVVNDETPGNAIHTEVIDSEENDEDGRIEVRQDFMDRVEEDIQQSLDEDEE

Compound | MIC (Candida albicans) | MIC (Bacillus cereus [1]) [µM] | MIC (Escherichia coli) [µM] | MIC (Pseudomonas aeruginosa) [µM] | MIC (Staphylococcus aureus [2]) [µM] | MIC (Staphylococcus aureus [3]) [µM] | MBC (Staphylococcus aureus [4]) [µM] | MBC (Bacillus cereus [5]) [µM] | IC50 (DNA gyrase subunit A) [µM] | Activity (Staphylococcus aureus [6]) | Activity (Staphylococcus aureus [7]) | Activity (Staphylococcus aureus [8]) | Activity (Staphylococcus aureus [9]) | Activity (Staphylococcus aureus [10]) | growth inhibition (GI) (Staphylococcus aureus [11]) | growth inhibition (GI) (Staphylococcus aureus [12])
COc1ccc(C(F)(F)F)c2c(=O)c(C(C)=O)c(SC)[nH]c12 | > 200 µM | > 200 | > 200 | > 200 | > 200 |  |  |  |  |  |  |  |  |  |  | 
GENTAMICIN |  | 1.6 | 0.125 | 1 | 0.8 | > 200 | 3.2 | 3.2 |  |  |  |  |  |  |  | 
CSc1[nH]c2cc(Br)ccc2c(=O)c1C(C)=O | > 200 µM | 200 (≈ 62.4 µg/mL) | > 200 | > 200 | 12.5 (≈ 3.9 µg/mL) |  |  |  |  |  |  |  |  |  |  | 
CSc1[nH]c2c(Cl)cccc2c(=O)c1C(C)=O | > 200 µM | > 200 | > 200 | > 200 | > 200 |  |  |  |  |  |  |  |  |  |  | 
COc1ccc2[nH]c(SC)c(C(C)=O)c(=O)c2c1 | > 200 µM | > 200 | > 200 | > 200 | > 200 |  |  |  |  |  |  |  |  |  |  | 
CSc1[nH]c2ccc(C)cc2c(=O)c1C(C)=O | > 200 µM | > 200 | > 200 | > 200 | > 200 |  |  |  |  |  |  |  |  |  |  | 
CSc1[nH]c2c(Cl)cc([N+](=O)[O-])cc2c(=O)c1C(C)=O | > 200 µM | 6.25 (≈ 1.95 µg/mL) | > 200 | > 200 | 12.5 (≈ 3.91 µg/mL) | > 200 | > 200 | > 200 | 80.3 |  |  |  |  |  |  | 
CN(C)[C@@H]1C(O)=C(C(N)=O)C(=O)[C@@]2(O)C(O)=C3C(=O)c4c(O)cccc4[C@@](C)(O)[C@H]3C[C@@H]12 [TETRACYCLINE] |  | 1.6 (≈ 0.711 µg/mL) | 0.25 (≈ 0.111 µg/mL) | 2 (≈ 0.889 µg/mL) | 0.0325 (≈ 0.0144 µg/mL) | 200 (≈ 88.9 µg/mL) | 0.125 (≈ 0.0556 µg/mL) | 3.2 (≈ 1.42 µg/mL) |  |  |  |  |  |  |  | 
CSc1[nH]c2c(C(F)(F)F)ccc(C(F)(F)F)c2c(=O)c1C(C)=O | 200 µM | 1.6 (≈ 0.591 µg/mL) | > 200 | > 200 | 0.8 (≈ 0.295 µg/mL) | > 200 | 6.25 (≈ 2.31 µg/mL) | 6.25 (≈ 2.31 µg/mL) | 1.92 | Active | Active | Active | Active | Active | Active | inactive
CCSc1[nH]c2ccc(C(F)(F)F)cc2c(=O)c1C(C)=O | > 200 µM | 25 (≈ 7.88 µg/mL) | > 200 | > 200 | 6.25 (≈ 1.97 µg/mL) | > 200 | 25 (≈ 7.88 µg/mL) | 50 (≈ 15.8 µg/mL) | 16.2 |  |  |  |  |  |  | 
CSc1[nH]c2cc(C(F)(F)F)ccc2c(=O)c1C(C)=O | > 200 µM | 50 (≈ 15.1 µg/mL) | > 200 | > 200 | 3.12 (≈ 0.942 µg/mL) | > 200 | 6.25 (≈ 1.88 µg/mL) | > 200 |  |  |  |  |  |  |  | 
OC(Cn1cncn1)(Cn1cncn1)c1ccc(F)cc1F [FLUCONAZOLE] | 1 µg/mL |  |  |  |  |  |  |  |  |  |  |  |  |  |  | 
CSc1[nH]c2ccc(Br)cc2c(=O)c1C(C)=O | > 200 µM | 200 (≈ 62.4 µg/mL) | > 200 | > 200 | 25 (≈ 7.8 µg/mL) |  |  |  |  |  |  |  |  |  |  | 
CSc1[nH]c2cc(C(F)(F)F)c(C#N)cc2c(=O)c1C(C)=O | 200 µM | 1.6 (≈ 0.522 µg/mL) | > 200 | > 200 | 0.8 (≈ 0.261 µg/mL) | > 200 | 25 (≈ 8.16 µg/mL) | 25 (≈ 8.16 µg/mL) | 6.47 |  |  |  |  |  | Active | inactive
C[C@@H]1[C@H](O)[C@@H](C)/C=C/C=C/C=C/C=C/C=C/C=C/C=C/[C@H](O[C@@H]2O[C@H](C)[C@@H](O)[C@H](N)[C@@H]2O)C[C@@H]2O[C@](O)(C[C@@H](O)C[C@@H](O)[C@H](O)CC[C@@H](O)C[C@@H](O)CC(=O)O[C@H]1C)C[C@H](O)[C@H]2C(=O)O [AMPHOTERICIN B] | 0.2 µg/mL |  |  |  |  |  |  |  |  |  |  |  |  |  |  | 
CSc1[nH]c2c(C)cccc2c(=O)c1C(C)=O | > 200 µM | > 200 | > 200 | > 200 | > 200 |  |  |  |  |  |  |  |  |  |  | 
CSc1[nH]c2ccc(OC(F)(F)F)cc2c(=O)c1C(C)=O | > 200 µM | 12.5 (≈ 3.97 µg/mL) | > 200 | > 200 | 3.12 (≈ 0.992 µg/mL) | > 200 | 25 (≈ 7.93 µg/mL) | 25 (≈ 7.93 µg/mL) |  |  |  |  |  |  |  | 
CSc1[nH]c2ccccc2c(=O)c1C(C)=O | > 200 µM | > 200 | > 200 | > 200 | > 200 |  |  |  |  |  |  |  |  |  |  | 
CSc1[nH]c2c(Cl)cc(C(F)(F)F)cc2c(=O)c1C(C)=O | > 200 µM | 1.6 (≈ 0.537 µg/mL) | > 200 | > 200 | 0.8 (≈ 0.269 µg/mL) | > 200 | 6.25 (≈ 2.1 µg/mL) | 6.25 (≈ 2.1 µg/mL) | 8.01 |  |  |  |  |  | Active | inactive
CC(=O)c1c(O)[nH]c2ccc(C(F)(F)F)cc2c1=O | > 200 µM | > 200 | > 200 | > 200 | > 200 |  |  |  |  |  |  |  |  |  |  | 
CC1COc2c(N3CCN(C)CC3)c(F)cc3c(=O)c(C(=O)O)cn1c23 (stereo not drawn) [OFLOXACIN] |  | 0.8 (≈ 0.289 µg/mL) | 0.5 (≈ 0.181 µg/mL) | 4 (≈ 1.45 µg/mL) | 0.125 (≈ 0.0452 µg/mL) | 100 (≈ 36.1 µg/mL) | 0.5 (≈ 0.181 µg/mL) | 1.6 (≈ 0.578 µg/mL) |  |  |  |  |  |  |  | 
CSc1[nH]c2c(F)ccc(C(F)(F)F)c2c(=O)c1C(C)=O | 200 µM | 3.12 (≈ 0.998 µg/mL) | > 200 | > 200 | 0.8 (≈ 0.255 µg/mL) | > 200 | 6.25 (≈ 2 µg/mL) | 6.25 (≈ 2 µg/mL) | 2.47 |  |  |  |  |  |  | 
CSc1[nH]c2ccc(C(F)(F)F)cc2c(=O)c1C(C)=O | > 200 µM | 50 (≈ 15.1 µg/mL) | > 200 | > 200 | 6.25 (≈ 1.88 µg/mL) | > 200 | 25 (≈ 7.53 µg/mL) | > 200 |  |  |  |  |  |  |  | 
CC(=O)c1c([S+](C)[O-])[nH]c2ccc(C(F)(F)F)cc2c1=O (stereo not drawn) | > 200 µM | 3.12 (≈ 0.992 µg/mL) | > 200 | > 200 | 12.5 (≈ 3.97 µg/mL) | > 200 | 50 (≈ 15.9 µg/mL) | 50 (≈ 15.9 µg/mL) |  |  |  |  |  |  |  | 
CSc1[nH]c2c(Cl)ccc(C(F)(F)F)c2c(=O)c1C(C)=O | > 200 µM | 1.6 (≈ 0.537 µg/mL) | > 200 | > 200 | 0.8 (≈ 0.269 µg/mL) | > 200 | 12.5 (≈ 4.2 µg/mL) | 12.5 (≈ 4.2 µg/mL) |  |  |  |  |  |  | Active | inactive
COc1cccc2c(=O)c(C(C)=O)c(SC)[nH]c12 | > 200 µM | > 200 | > 200 | > 200 | > 200 |  |  |  |  |  |  |  |  |  |  | 
CSc1[nH]c2c(Br)cccc2c(=O)c1C(C)=O | > 200 µM | > 200 | > 200 | > 200 | 6.25 (≈ 1.95 µg/mL) | > 200 | 25 (≈ 7.8 µg/mL) | > 200 |  |  |  |  |  |  |  | 
